23 compounds from patent publication US8937091B2 (Japan Science and Technology Agency, priority 2009, dated 2015) can be followed below.

For assay [1], the system named is IICR (IP3 induced calcium release) in CHO cells. The assay can be described thus: Assay of IICR (IP3 induced calcium release)-inhibiting action. The settings on record: for inhibition at 10 µM / inhibition at 30 µM / inhibition at 100 µM / IICR level (percentage of inhibition): CHO cells, 10 μM ATP; for inhibition at 10 µM / inhibition at 30 µM / inhibition at 100 µM: read-out: IICR level (percentage of inhibition). Type of assay: cell-based, Chinese hamster. The method, boiled down:
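CHO cell medium replaced with calcium-containing BSS; compound added 1 min later, then 10 μM ATP after a further 2 min. Percent inhibition of the ATP-evoked rise in intracellular calcium determined at each compound concentration.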

The subject of assay [2] is SOCE (store operated calcium entry) in CHO cells. The assay can be described thus: Assay of SOCE (store operated calcium entry)-inhibiting action. The settings on record: Cricetulus griseus, CHO; for inhibition at 10 µM: test compound 10 μmol; for inhibition at 10 µM / inhibition at 30 µM / inhibition at 100 µM: CHO cells, thapsigargin, read-out: SOCE level (percentage of inhibition); for inhibition at 30 µM: test compound 30 μmol; for inhibition at 100 µM: test compound 100 μmol. Type of assay: cell-based, Chinese hamster. In outline: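 CHO cells in calcium-free BSS received compound, then 1 μM thapsigargin 2 min later to deplete stores; after 9 min, 2 mM calcium chloride (final) added. Percent inhibition of the rise in intracellular calcium determined at various compound concentrations.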

Setting [3] is: Cricetulus griseus, CHO, test compound 10 μmol.
Setting [4] is: Cricetulus griseus, CHO, test compound 30 μmol.
Where [5] appears, read: Cricetulus griseus, CHO, test compound 100 μmol.

Structures are written as SMILES. Where only a bound is given, the exact number is not on record here.

`NCCCNCCCCNCCC(=O)c1ccc2ccccc2c1` [Example 119, 2-(N-aminopropylaminobutyl)aminoethyl-2-naphthylketone]: the inhibition at 10 µM in assay [1] (setting [3]) and in assay [2] was 0% throughout. The inhibition at 30 µM in assay [1] (setting [4]) and in assay [2] was 0% throughout. Besides, the inhibition at 100 µM in assay [1] (setting [5]) and in assay [2] was 0% throughout.
Regarding `CC(C)N(CCC(=O)c1nccs1)Cc1ccccc1` [Example 120, 2-(N-isopropylbenzyl)aminoethyl-2-thiazolylketone], the values for the inhibition at 10 µM in assay [1] (setting [3]) and in assay [2] were 10% and 0%, respectively. Also, the results for the inhibition at 30 µM in assay [1] (setting [4]) and in assay [2] were 90% and 0%, respectively. The values for the inhibition at 100 µM in assay [1] (setting [5]) and in assay [2] were 100% and 20%, respectively.
As for `CC(C)(C)N(CCC(=O)c1ccco1)Cc1ccccc1` [Example 121, 2-(N-t-butylbenzyl)aminoethyl-2-furylketone], the inhibition at 10 µM was determined as 10% in assay [1] (setting [3]) and 0% in assay [2]. For the same compound, the inhibition at 30 µM in assay [1] (setting [4]) turned out to be 50%; in assay [2] it was 0%. The values for the inhibition at 100 µM in assay [1] (setting [5]) and in assay [2] were 100% and 0%, respectively. The half-inhibitory concentration (IC50) is 30 µM in assay [1] (Cricetulus griseus, CHO, Table 1) and more than 100 µM in assay [2] (Table 1).
Take `CC(C)(C)N(CCO)CCC(=O)c1nccs1` [Example 122, 2-(N-t-butylhydroxyethyl)aminoethyl-2-thiazolylketone]: the inhibition at 10 µM in assay [1] (setting [3]) and in assay [2] was 0% in each case. The inhibition at 30 µM in assay [1] (setting [4]) and in assay [2] was 0% each time. Besides, the inhibition at 100 µM in assay [1] (setting [5]) and in assay [2] was 0% in each case.
For the compound `CC(C)(C)N(CCO)CCC(=O)c1ccco1` [Example 123, 2-(N-t-butylhydroxyethyl)aminoethyl-2-furylketone], the inhibition at 10 µM was determined as 20% in assay [1] (setting [3]) and 0% in assay [2]. Also, the inhibition at 30 µM in assay [1] (setting [4]) was found to be 20%; in assay [2] it was 10%. Besides, the results for the inhibition at 100 µM in assay [1] (setting [5]) and in assay [2] were 70% and 20%, respectively.
For `O=C(CCN(CCO)Cc1ccccc1)c1ccco1` [Example 124, 2-(N-hydroxyethylbenzyl)aminoethyl-2-furylketone], the inhibition at 10 µM in assay [1] (setting [3]) stood at 20%; in assay [2], 0%. The values for the inhibition at 30 µM in assay [1] (setting [4]) and in assay [2] were 20% and 0%, respectively. Also, the values for the inhibition at 100 µM in assay [1] (setting [5]) and in assay [2] were 70% and 0%, respectively.
For the compound `CN(CCC(=O)c1cccs1)Cc1ccccc1` [Example 125, 2-(N-methylbenzyl)aminoethyl-2-thiophenylketone], the inhibition at 10 µM in assay [1] (setting [3]) and in assay [2] was 0% in each case. In addition, the figures for the inhibition at 30 µM in assay [1] (setting [4]) and in assay [2] were 30% and 0%, respectively. Moreover, the results for the inhibition at 100 µM in assay [1] (setting [5]) and in assay [2] were 70% and 0%, respectively.
Take `CN(CCO)CCC(=O)c1cccs1` [Example 126, 2-(N-methylhydroxyethyl)aminoethyl-2-thiophenylketone]: the inhibition at 10 µM in assay [1] (setting [3]) is 20%; in assay [2] it was 0%. Also, the inhibition at 30 µM in assay [1] (setting [4]) is 20%; in assay [2] it was 0%. The values for the inhibition at 100 µM in assay [1] (setting [5]) and in assay [2] were 70% and 0%, respectively.
Consider `O=C(CCN1CCCCC1CO)c1cccs1` (centres unmarked) [Example 127], for which the inhibition at 10 µM in assay [1] (setting [3]) was 20%; in assay [2], 0%. In addition, the inhibition at 30 µM in assay [1] (setting [4]) was found to be 20%; in assay [2], 0%. Besides, the inhibition at 100 µM in assay [1] (setting [5]) was found to be 50%; in assay [2], 10%.
Turning to `O=C(CCNc1ccccc1S)c1cccs1` [Example 128, 2-(2-mercaptophenyl)aminoethylthiophenylketone], the inhibition at 10 µM in assay [1] (setting [3]) and in assay [2] was 0% in each case. The results for the inhibition at 30 µM in assay [1] (setting [4]) and in assay [2] were 30% and 0%, respectively. Besides, the figures for the inhibition at 100 µM in assay [1] (setting [5]) and in assay [2] were 10% and 20%, respectively.
Regarding `O=C(CCN(CCO)Cc1ccccc1)c1cnccn1` [Example 129, 2-(N-benzylhydroxyethyl)aminoethyl-2-pyrazylketone], the inhibition at 10 µM in assay [1] (setting [3]) and in assay [2] was 0% throughout. Besides, the figures for the inhibition at 30 µM in assay [1] (setting [4]) and in assay [2] were 50% and 0%, respectively. Besides, the inhibition at 100 µM in assay [1] (setting [5]) is 90%; in assay [2] it was 0%.
Turning to `O=C(CCN(CCO)CCO)c1ccco1` [Example 130, 2-(N-bis-hydroxyethyl)aminoethyl-2-furylketone], the “IICR level (percentage of inhibition)” value in assay [1] (test compound 10 μmol) is 20%; in assay [1] (test compound 30 μmol), 20%; in assay [1] (test compound 100 μmol) it was 50%. Besides, the inhibition at 10 µM in assay [2] is 0%. Besides, the inhibition at 30 µM in assay [2] was 0%. Also, the inhibition at 100 µM in assay [2] was determined as 0%.
Take `CN1CCN(CCC(=O)c2ccccc2)CC1` [Example 131, 2-(N-methylpiperazyl)ethylphenylketone]: the inhibition at 10 µM in assay [1] (setting [3]) was found to be 30%; in assay [2] it was 0%. In addition, the values for the inhibition at 30 µM in assay [1] (setting [4]) and in assay [2] were 20% and 0%, respectively. Moreover, the inhibition at 100 µM in assay [1] (setting [5]) came to 50%; in assay [2], 0%.
Regarding `O=C(CCN(CCO)c1ccccc1)c1ccco1` [Example 132, 2-(N-phenylhydroxyethyl)aminoethyl-2-furylketone], the inhibition at 10 µM was 10% in assay [1] (setting [3]) and 0% in assay [2]. Further, the inhibition at 30 µM in assay [1] (setting [4]) stood at 20%; in assay [2], 0%. Further, the inhibition at 100 µM stood at 20% in assay [1] (setting [5]) and 0% in assay [2].
As to `O=C(CCN(CCO)c1ccccc1)c1ccccc1` [Example 133, 2-(N-phenylhydroxyethyl)aminoethylphenylketone], the inhibition at 10 µM in assay [1] (setting [3]) came to 20%; in assay [2] it was 0%. Moreover, the inhibition at 30 µM worked out at 20% in assay [1] (setting [4]) and 0% in assay [2]. Also, the inhibition at 100 µM was 30% in assay [1] (setting [5]) and 0% in assay [2].
For `O=C(CCN(CCO)c1ccccc1)c1ccncc1` [Example 134, 2-(N-phenylhydroxyethyl)aminoethyl-4-pyridylketone], the values for the inhibition at 10 µM in assay [1] (setting [3]) and in assay [2] were 20% and 0%, respectively. For the same compound, the inhibition at 30 µM in assay [1] (setting [4]) is 20%; in assay [2], 0%. In addition, the inhibition at 100 µM in assay [1] (setting [5]) turned out to be 30%; in assay [2] it was 0%.
For `O=C(CCN(CCO)Cc1ccccc1)c1ccncc1` [Example 135, 2-(N-benzylhydroxyethyl)aminoethyl-4-pyridylketone], the values for the inhibition at 10 µM in assay [1] (setting [3]) and in assay [2] were 20% and 0%, respectively. In addition, the values for the inhibition at 30 µM in assay [1] (setting [4]) and in assay [2] were 10% and 0%, respectively. Also, the inhibition at 100 µM in assay [1] (setting [5]) and in assay [2] was 0% in each case.
`Cc1ccc(C(=O)CCN(Cc2ccccc2)C(C)C)o1` [Example 136]: the inhibition at 10 µM stood at 50% in assay [1] (setting [3]) and 0% in assay [2]. In addition, the inhibition at 30 µM in assay [1] (setting [4]) was 60%; in assay [2] it was 0%. Further, the inhibition at 100 µM in assay [1] (setting [5]) came to 80%; in assay [2], 20%.
As for `Cc1ccc(C(=O)CCN(Cc2ccccc2)C(C)(C)C)o1` [Example 137, 2-(N-benzyl-t-butyl)aminoethyl-5-methyl-2-furylketone], the inhibition at 10 µM in assay [1] (setting [3]) is 40%; in assay [2], 0%. In addition, the results for the inhibition at 30 µM in assay [1] (setting [4]) and in assay [2] were 50% and 0%, respectively. The inhibition at 100 µM was 50% in assay [1] (setting [5]) and 0% in assay [2].
In the case of `Cc1ccc(C(=O)CCN(Cc2ccccc2)Cc2ccccc2)o1` [Example 138, 2-(N-dibenzyl)aminoethyl-5-methyl-2-furylketone], the inhibition at 10 µM in assay [1] (setting [3]) and in assay [2] was 0% each time. The results for the inhibition at 30 µM in assay [1] (setting [4]) and in assay [2] were 0% and 10%, respectively. In addition, the inhibition at 100 µM in assay [1] (setting [5]) was found to be 10%; in assay [2] it was 20%.
Regarding `Cc1ccc(C(=O)CCN(CCO)Cc2ccccc2)o1` [Example 139, 2-(N-benzylhydroxyethyl)aminoethyl-5-methyl-2-furylketone], the inhibition at 10 µM turned out to be 20% in assay [1] (setting [3]) and 0% in assay [2]. For the same compound, the inhibition at 30 µM in assay [1] (setting [4]) worked out at 20%; in assay [2], 0%. For the same compound, the inhibition at 100 µM worked out at 30% in assay [1] (setting [5]) and 0% in assay [2].
As to `Cc1ccc(C(=O)CCN(C)CCO)o1` [Example 140, 2-(N-methylhydroxyethyl)aminoethyl-5-methyl-2-furylketone], the figures for the inhibition at 10 µM in assay [1] (setting [3]) and in assay [2] were 20% and 0%, respectively. The inhibition at 30 µM in assay [1] (setting [4]) was 20%; in assay [2], 0%. In addition, the inhibition at 100 µM in assay [1] (setting [5]) came out at 30%; in assay [2], 0%.
For the compound `CCC(CO)(CO)NCCC(=O)c1cccc2ccccc12` [Example 141], the inhibition at 10 µM amounted to 20% in assay [1] (setting [3]) and 0% in assay [2]. Further, the inhibition at 30 µM in assay [1] (setting [4]) is 20%; in assay [2] it was 0%. The inhibition at 100 µM in assay [1] (setting [5]) amounted to 20%; in assay [2] it was 0%.

Broadly, the inhibition is how much of the control response was suppressed. One may read the IC50 as the concentration that gives 50% inhibition.
